# Test results published in the supplement of paper PMC10307832.
# Tests used:
# Assay in all cases: relative viability (nuclei count vs DMSO), 5 days (fraction); higher = more cells survive
# [1] = tested on: BEN
# How it was run: (§1)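 After 5 days of treatment, lung cancer cells in 1536-well plates were fixed and stained in a single step (final 0.05% Triton X-100, 1% formaldehyde, 1 ug/ml Hoechst) and their nuclei counted on 4× images. Treatment had been applied by pin tool the day after seeding as one drug alone or as a fixed anchor-drug dose with five library-drug doses (not always all listed) in √10 steps. Relative viability is the nuclei count of treated wells divided by that of vehicle wells, and values are medians of duplicate plates.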
# [2] = tested on: CAL-12T
# How it was run: as §1
# [3] = tested on: COR-L 105
# How it was run: as §1
# [4] = tested on: COR-L23
# How it was run: as §1
# [5] = tested on: HARA
# How it was run: as §1
# [6] = tested on: HCC-15
# How it was run: as §1
# [7] = tested on: HCC-366
# How it was run: as §1
# [8] = tested on: HCC-44
# How it was run: as §1
# [9] = tested on: HCC-827
# How it was run: as §1
# [10] = tested on: HOP-62
# How it was run: as §1
# [11] = tested on: LC-2-ad
# How it was run: as §1
# [12] = tested on: LCLC-97TM1
# How it was run: as §1
# [13] = tested on: LU99A
# How it was run: as §1
# [14] = tested on: LXF-289
# How it was run: as §1
# [15] = tested on: NCI-H1993
# How it was run: as §1
# [16] = tested on: NCI-H2009
# How it was run: as §1
# [17] = tested on: NCI-H2087
# How it was run: as §1
# [18] = tested on: NCI-H2126
# How it was run: as §1
# [19] = tested on: NCI-H2170
# How it was run: as §1
# [20] = tested on: NCI-H727
# How it was run: as §1
# [21] = tested on: PC-14
# How it was run: as §1
# [22] = tested on: PC-3 [JPC-3]
# How it was run: as §1
# [23] = tested on: SK-MES-1
# How it was run: as §1
smiles,measurement,setting,value
Cc1cnc(-c2cnc(NCCNc3ccc(C#N)cn3)nc2-c2ccc(Cl)cc2Cl)[nH]1 + CS(=O)(=O)N1CCN(Cc2cc3nc(-c4cccc5[nH]ncc45)nc(N4CCOCC4)c3s2)CC1 [Pictilisib] (partner 1 µM),relative viability,[1]; first compound 0.08 µM,0.572
same,relative viability,[1]; first compound 0.253 µM,0.596
same,relative viability,[1]; first compound 0.8 µM,0.612
same,relative viability,[1]; first compound 2.53 µM,0.648
same,relative viability,[2]; first compound 0.253 µM,0.52
same,relative viability,[2]; first compound 2.53 µM,0.53
same,relative viability,[3]; first compound 0.08 µM,0.344
same,relative viability,[3]; first compound 0.253 µM,0.468
same,relative viability,[3]; first compound 0.8 µM,0.176
same,relative viability,[3]; first compound 2.53 µM,0.385
same,relative viability,[4]; first compound 0.08 µM,0.901
same,relative viability,[4]; first compound 0.253 µM,0.683
same,relative viability,[4]; first compound 0.8 µM,0.944
same,relative viability,[4]; first compound 2.53 µM,0.755
same,relative viability,[5]; first compound 0.08 µM,0.398
same,relative viability,[5]; first compound 0.253 µM,0.414
same,relative viability,[5]; first compound 0.8 µM,0.433
same,relative viability,[5]; first compound 2.53 µM,0.454
same,relative viability,[6]; first compound 0.08 µM,0.681
same,relative viability,[6]; first compound 0.253 µM,0.669
same,relative viability,[6]; first compound 0.8 µM,0.746
same,relative viability,[6]; first compound 2.53 µM,0.739
same,relative viability,[7]; first compound 0.08 µM,0.148
same,relative viability,[7]; first compound 0.253 µM,0.128
same,relative viability,[7]; first compound 0.8 µM,0.119
same,relative viability,[7]; first compound 2.53 µM,0.132
same,relative viability,[8]; first compound 0.08 µM,0.706
same,relative viability,[8]; first compound 0.253 µM,0.578
same,relative viability,[8]; first compound 0.8 µM,0.715
same,relative viability,[8]; first compound 2.53 µM,0.938
same,relative viability,[9]; first compound 0.08 µM,1.02
same,relative viability,[9]; first compound 0.8 µM,0.951
same,relative viability,[9]; first compound 2.53 µM,0.813
same,relative viability,[10]; first compound 0.08 µM,0.777
same,relative viability,[10]; first compound 0.253 µM,0.688
same,relative viability,[10]; first compound 0.8 µM,0.725
same,relative viability,[10]; first compound 2.53 µM,0.647
same,relative viability,[11]; first compound 0.08 µM,0.489
same,relative viability,[11]; first compound 0.8 µM,0.441
same,relative viability,[11]; first compound 2.53 µM,0.468
same,relative viability,[12]; first compound 0.08 µM,0.231
same,relative viability,[12]; first compound 0.253 µM,0.234
same,relative viability,[12]; first compound 0.8 µM,0.158
same,relative viability,[12]; first compound 2.53 µM,0.172
same,relative viability,[13]; first compound 0.08 µM,0.314
same,relative viability,[13]; first compound 0.253 µM,0.348
same,relative viability,[13]; first compound 0.8 µM,0.348
same,relative viability,[13]; first compound 2.53 µM,0.41
same,relative viability,[14]; first compound 0.08 µM,0.841
same,relative viability,[14]; first compound 0.253 µM,0.745
same,relative viability,[14]; first compound 0.8 µM,0.845
same,relative viability,[14]; first compound 2.53 µM,0.877
same,relative viability,[15]; first compound 0.08 µM,0.92
same,relative viability,[15]; first compound 0.253 µM,0.911
same,relative viability,[15]; first compound 0.8 µM,0.87
same,relative viability,[15]; first compound 2.53 µM,0.806
same,relative viability,[16]; first compound 0.08 µM,0.877
same,relative viability,[16]; first compound 0.253 µM,0.81
same,relative viability,[16]; first compound 0.8 µM,0.814
same,relative viability,[16]; first compound 2.53 µM,0.732
same,relative viability,[17]; first compound 0.08 µM,0.853
same,relative viability,[17]; first compound 0.253 µM,0.754
same,relative viability,[17]; first compound 0.8 µM,0.975
same,relative viability,[17]; first compound 2.53 µM,1.06
same,relative viability,[18]; first compound 0.08 µM,0.512
same,relative viability,[18]; first compound 0.253 µM,0.468
same,relative viability,[18]; first compound 0.8 µM,0.494
same,relative viability,[18]; first compound 2.53 µM,0.559
same,relative viability,[19]; first compound 0.08 µM,0.29
same,relative viability,[19]; first compound 0.253 µM,0.307
same,relative viability,[19]; first compound 0.8 µM,0.261
same,relative viability,[19]; first compound 2.53 µM,0.318
same,relative viability,[20]; first compound 0.08 µM,0.462
same,relative viability,[20]; first compound 0.253 µM,0.259
same,relative viability,[20]; first compound 0.8 µM,0.378
same,relative viability,[20]; first compound 2.53 µM,0.435
same,relative viability,[21]; first compound 0.08 µM,0.662
same,relative viability,[21]; first compound 0.253 µM,0.775
same,relative viability,[21]; first compound 0.8 µM,0.55
same,relative viability,[21]; first compound 2.53 µM,0.645
same,relative viability,[22]; first compound 0.08 µM,0.772
same,relative viability,[22]; first compound 0.253 µM,0.666
same,relative viability,[22]; first compound 0.8 µM,0.798
same,relative viability,[22]; first compound 2.53 µM,0.79
same,relative viability,[23]; first compound 0.08 µM,0.406
same,relative viability,[23]; first compound 0.253 µM,0.378
same,relative viability,[23]; first compound 0.8 µM,0.38
same,relative viability,[23]; first compound 2.53 µM,0.403
